This is an account of results in US8492560B2, “Quinazoline derivatives as angiogenesis inhibitors” (AstraZeneca AB, priority 1999, dated 2013).

In general, melting point refers to the temperature of the solid-liquid transition.

With `COc1cc2c(Oc3cccc4[nH]ccc34)ncnc2cc1OCCCN1CCCCC1` [Example 169, 4-(indol-4-yloxy)-6-methoxy-7-(3-piperidinopropoxy)quinazoline], the melting point lay within 80 to 82 °C.
For `COc1cc2c(Oc3ccc4[nH]cc(C)c4c3)ncnc2cc1OCCCN1CCCC1` [Example 179, 6-methoxy-4-(3-methylindol-5-yloxy)-7-(3-(pyrrolidin-1-yl)propoxy)quinazoline], the melting point fell in the range of 75 to 77 °C.
For `COc1cc2c(Oc3cnc4[nH]ccc4c3)ncnc2cc1OCCCN1CCCC1` [Example 182, 6-methoxy-7-(3-(pyrrolidin-1-yl)propoxy)-4-(1H-pyrrolo[2,3-b]pyridin-5-yloxy)quinazoline] the value was 184 to 185.5 °C; for `COc1cc2c(Oc3ccc4[nH]c(C)cc4c3)ncnc2cc1OCC1CCN(C)C(=O)C1` (stereo not shown) [Example 268, 6-methoxy-4-(2-methylindol-5-yloxy)-7-(1-methyl-2-oxopiperidin-4-ylmethoxy)quinazoline], 250 to 251 °C.
